Test results: PubChem BioAssay (NCI)
Values joined by “and” are separate entries in the source; they are usually repeats but may differ in a detail not shown here. Equal values may be shown once.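 Exposure lasted 48 hours, with cells grown in 96-well plates and compounds tested at five concentrations. GI50 = concentration required for 50% inhibition of growth. TGI marks complete inhibition of growth.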

Key:
Assay in all cases: growth of human tumour cells (NCI), 48 h
ACHN renal = tested on: ACHN renal
IGROV1 ovarian = tested on: IGROV1 ovarian
PC-3 prostate = tested on: PC-3 prostate
A498 renal = tested on: A498 renal
SK-MEL-5 melanoma = tested on: SK-MEL-5 melanoma
T-47D breast = tested on: T-47D breast
KM12 colon = tested on: KM12 colon
HL-60(TB) leukemia = tested on: HL-60(TB) leukemia
LOX IMVI melanoma = tested on: LOX IMVI melanoma
BT-549 breast = tested on: BT-549 breast
SF-295 CNS = tested on: SF-295 CNS
HCT-116 colon = tested on: HCT-116 colon
DU-145 prostate = tested on: DU-145 prostate
SF-539 CNS = tested on: SF-539 CNS
RXF 393 renal = tested on: RXF 393 renal
UACC-62 melanoma = tested on: UACC-62 melanoma
MCF7 breast = tested on: MCF7 breast
SN12C renal = tested on: SN12C renal
U251 CNS = tested on: U251 CNS
UACC-257 melanoma = tested on: UACC-257 melanoma
HOP-62 NSCLC = tested on: HOP-62 NSCLC
NCI-H23 lung = tested on: NCI-H23 lung
HOP-92 NSCLC = tested on: HOP-92 NSCLC
SK-OV-3 ovarian = tested on: SK-OV-3 ovarian
HS 578T breast = tested on: HS 578T breast
NCI-H522 lung = tested on: NCI-H522 lung
SK-MEL-2 melanoma = tested on: SK-MEL-2 melanoma
OVCAR-3 ovarian = tested on: OVCAR-3 ovarian
UO-31 renal = tested on: UO-31 renal
OVCAR-8 ovarian = tested on: OVCAR-8 ovarian
HCC-2998 colon = tested on: HCC-2998 colon
SNB-19 CNS = tested on: SNB-19 CNS
SNB-75 CNS = tested on: SNB-75 CNS
COLO 205 colon = tested on: COLO 205 colon
K-562 leukemia = tested on: K-562 leukemia
EKVX NSCLC = tested on: EKVX NSCLC
MDA-N = tested on: MDA-N
HCT-15 colon = tested on: HCT-15 colon
RPMI-8226 leukemia = tested on: RPMI-8226 leukemia
SF-268 CNS = tested on: SF-268 CNS
NCI/ADR-RES ovarian = tested on: NCI/ADR-RES ovarian
MALME-3M melanoma = tested on: MALME-3M melanoma
MOLT-4 leukemia = tested on: MOLT-4 leukemia
NCI-H226 lung = tested on: NCI-H226 lung
MDA-MB-435 = tested on: MDA-MB-435
SK-MEL-28 melanoma = tested on: SK-MEL-28 melanoma
SR leukemia = tested on: SR leukemia
MDA-MB-231 breast = tested on: MDA-MB-231 breast
CCRF-CEM leukemia = tested on: CCRF-CEM leukemia
SW-620 colon = tested on: SW-620 colon
A549 NSCLC = tested on: A549 NSCLC
CAKI-1 renal = tested on: CAKI-1 renal
HT29 colon = tested on: HT29 colon
OVCAR-5 ovarian = tested on: OVCAR-5 ovarian
OVCAR-4 ovarian = tested on: OVCAR-4 ovarian
M14 melanoma = tested on: M14 melanoma
NCI-H460 lung = tested on: NCI-H460 lung
TK-10 renal = tested on: TK-10 renal
786-0 renal = tested on: 786-0 renal

## COc1c(O)ccc(C2=Cc3ccc(O)cc3OC2)c1OC
ACHN renal
  TGI: > 63.4 µM
IGROV1 ovarian
  TGI: > 100 µM
PC-3 prostate
  TGI: 84.4 µM
A498 renal
  TGI: 80.8 µM
SK-MEL-5 melanoma
  TGI: 38.5 µM
T-47D breast
  TGI: > 82.3 µM
KM12 colon
  TGI: 33.4 µM
HL-60(TB) leukemia
  TGI: 10.7 µM
LOX IMVI melanoma
  TGI: > 100 µM
BT-549 breast
  TGI: > 82.4 µM
SF-295 CNS
  TGI: > 83.6 µM
HCT-116 colon
  TGI: > 61.7 µM
DU-145 prostate
  TGI: > 79.6 µM
SF-539 CNS
  TGI: 35.3 µM
RXF 393 renal
  TGI: > 63.5 µM
UACC-62 melanoma
  TGI: > 50.7 µM
MCF7 breast
  TGI: > 100 µM
SN12C renal
  TGI: > 96.5 µM
U251 CNS
  TGI: > 100 µM
UACC-257 melanoma
  TGI: > 89.7 µM
HOP-62 NSCLC
  TGI: 62.4 µM
NCI-H23 lung
  TGI: > 58.3 µM
HOP-92 NSCLC
  TGI: > 74 µM
SK-OV-3 ovarian
  TGI: > 80.8 µM
HS 578T breast
  TGI: > 95.3 µM
NCI-H522 lung
  TGI: 16.1 µM
SK-MEL-2 melanoma
  TGI: 68 µM
OVCAR-3 ovarian
  TGI: 34 µM
UO-31 renal
  TGI: 28.4 µM
OVCAR-8 ovarian
  TGI: > 62.5 µM
HCC-2998 colon
  TGI: 47.1 µM
SNB-19 CNS
  TGI: > 100 µM
SNB-75 CNS
  TGI: > 58.3 µM
COLO 205 colon
  TGI: > 74 µM
K-562 leukemia
  TGI: 45.8 µM
EKVX NSCLC
  TGI: > 100 µM
MDA-N
  TGI: 33.5 µM
HCT-15 colon
  TGI: 37.3 µM
RPMI-8226 leukemia
  TGI: > 26.8 µM
SF-268 CNS
  TGI: > 100 µM
NCI/ADR-RES ovarian
  TGI: > 67.9 µM
MALME-3M melanoma
  TGI: 65.7 µM
MOLT-4 leukemia
  TGI: 37 µM
NCI-H226 lung
  TGI: > 65.4 µM
MDA-MB-435
  TGI: > 92.2 µM
SK-MEL-28 melanoma
  TGI: > 94 µM
SR leukemia
  TGI: 17.1 µM
MDA-MB-231 breast
  TGI: > 80.7 µM
CCRF-CEM leukemia
  TGI: > 96.7 µM
SW-620 colon
  TGI: > 100 µM
A549 NSCLC
  TGI: > 78.9 µM
CAKI-1 renal
  TGI: 50 µM
HT29 colon
  TGI: > 89.5 µM
OVCAR-5 ovarian
  TGI: 97.7 µM
OVCAR-4 ovarian
  TGI: > 81.1 µM
M14 melanoma
  TGI: 66.8 µM
NCI-H460 lung
  TGI: > 100 µM
TK-10 renal
  TGI: > 100 µM
786-0 renal
  TGI: > 63.5 µM

## C=C1C(C(O)C[C@H](C)C2O[C@@]3(CCCCO3)CCC2C)O[C@@H]2CCC3(CCC(/C=C/[C@@H](C)C4CC(C)=CC5(O4)O[C@H](C[C@](C)(O)C(=O)O)CCC5O)O3)OC2[C@@H]1O (stereo partly specified)
ACHN renal
  GI50: 0.0259 µM
  TGI: 0.101 µM and 0.0618 µM
IGROV1 ovarian
  GI50: 0.0322 µM
  TGI: 0.137 µM and 0.0641 µM
PC-3 prostate
  GI50: 0.0126 µM
  TGI: 0.0352 µM and 0.0191 µM
A498 renal
  GI50: 0.0315 µM
SK-MEL-5 melanoma
  TGI: 0.0155 µM and 0.00796 µM
T-47D breast
  GI50: 0.0131 µM
  TGI: 0.185 µM and 0.0641 µM
KM12 colon
  GI50: 0.00628 µM
HL-60(TB) leukemia
  GI50: 0.00162 µM
  TGI: 0.0078 µM and 0.016 µM
LOX IMVI melanoma
  GI50: 0.00588 µM
BT-549 breast
  GI50: 0.00337 µM
  TGI: 0.0115 µM and 0.0276 µM
SF-295 CNS
  GI50: 0.00748 µM
  TGI: 0.0867 µM and 0.0259 µM
HCT-116 colon
  GI50: 0.00557 µM
DU-145 prostate
  GI50: 0.0231 µM
  TGI: 0.137 µM and 0.0377 µM
SF-539 CNS
  GI50: 0.00456 µM
  TGI: 0.0175 µM and 0.00941 µM
RXF 393 renal
  GI50: 0.000277 µM
UACC-62 melanoma
  GI50: 0.00429 µM
  TGI: 0.0161 µM and 0.00861 µM
MCF7 breast
  GI50: 0.0199 µM
  TGI: 0.0441 µM and 0.0207 µM
SN12C renal
  GI50: 0.0202 µM
U251 CNS
  GI50: 0.00808 µM
UACC-257 melanoma
  GI50: 0.0137 µM
  TGI: 0.0342 µM and 0.0233 µM
HOP-62 NSCLC
  GI50: 0.0074 µM and 0.00398 µM
  TGI: 0.0255 µM and 0.0109 µM
NCI-H23 lung
  TGI: 0.0323 µM
HOP-92 NSCLC
  GI50: 0.013 µM
  TGI: 0.0386 µM and 0.00911 µM
SK-OV-3 ovarian
  GI50: 0.0106 µM
  TGI: 0.0421 µM and 0.0348 µM
HS 578T breast
  GI50: 0.00265 µM
  TGI: 0.0271 µM and 0.019 µM
NCI-H522 lung
  GI50: 0.00629 µM
  TGI: 0.0288 µM and 0.00539 µM
SK-MEL-2 melanoma
  GI50: 0.00353 µM
  TGI: 0.0112 µM and 0.00849 µM
OVCAR-3 ovarian
  GI50: 0.0121 µM
  TGI: 0.0316 µM and 0.00927 µM
UO-31 renal
  GI50: 0.096 µM
  TGI: 0.238 µM and 0.101 µM
OVCAR-8 ovarian
  GI50: 0.0265 µM
HCC-2998 colon
  TGI: 0.00925 µM
SNB-19 CNS
  GI50: 0.00486 µM
  TGI: 0.0158 µM and 0.0151 µM
SNB-75 CNS
  GI50: 0.0047 µM
  TGI: 0.0395 µM and 0.0042 µM
K-562 leukemia
  TGI: 0.163 µM and 0.303 µM
EKVX NSCLC
  GI50: 0.0192 µM
  TGI: 0.124 µM and 0.0174 µM
MDA-N
  GI50: 0.00535 µM
HCT-15 colon
  GI50: 0.0461 µM
  TGI: 0.203 µM and 0.055 µM
RPMI-8226 leukemia
  GI50: 0.00422 µM
  TGI: 0.0314 µM and 0.0173 µM
SF-268 CNS
  TGI: 0.00856 µM
NCI/ADR-RES ovarian
  GI50: 0.111 µM
  TGI: > 1 µM and 0.778 µM
MALME-3M melanoma
  GI50: 0.00997 µM
MOLT-4 leukemia
  GI50: 0.0241 µM
  TGI: 0.0615 µM and 0.0535 µM
NCI-H226 lung
  TGI: 0.00828 µM
MDA-MB-435
  GI50: 0.00736 µM
SK-MEL-28 melanoma
  GI50: 0.00433 µM
  TGI: 0.0151 µM and 0.00635 µM
SR leukemia
  GI50: 0.0541 µM
MDA-MB-231 breast
  GI50: 0.0117 µM
CCRF-CEM leukemia
  GI50: 0.00578 µM
  TGI: 0.0409 µM and 0.0931 µM
SW-620 colon
  GI50: 0.0231 µM
  TGI: 0.252 µM and 0.102 µM
A549 NSCLC
  GI50: 0.0477 µM
  TGI: 0.255 µM and 0.258 µM
CAKI-1 renal
  GI50: 0.0168 µM
  TGI: 0.0523 µM and 0.0409 µM
HT29 colon
  GI50: 0.021 µM
  TGI: 0.0561 µM and 0.0396 µM
OVCAR-5 ovarian
  GI50: 0.00706 µM
  TGI: 0.0239 µM and 0.0275 µM
OVCAR-4 ovarian
  GI50: 0.0231 µM
  TGI: 0.0898 µM and 0.0627 µM
M14 melanoma
  GI50: 0.00277 µM
  TGI: 0.00985 µM and 0.00627 µM
NCI-H460 lung
  GI50: 0.00631 µM
  TGI: 0.0332 µM and 0.0437 µM
TK-10 renal
  GI50: 0.067 µM
  TGI: 0.202 µM and 0.0362 µM
786-0 renal
  GI50: 0.0108 µM
  TGI: 0.0272 µM and 0.0343 µM
